Holding throughout (assay type): cell-based, human
For one data set, the system named is HeLa cells. In words: HDAC Fluorescent Activity Assay (Fluor de Lys) in HeLa cells. The settings on record: 300 nM. The method, then:
(§1) The HDAC Fluorescent Activity Assay (Enzo Life Science, Farmingdale, NY) was used to measure HDAC inhibition in HeLa cells in a 96-well format using Trichostatin A as the positive control per the manufacturer's protocol. This assay is based on the Fluor de Lys (Fluorogenic Histone Deacetylase Lysyl (FDL)) Substrate/Developer. The procedure was as follows: the test compounds FK228, JMA26, and JMA33 were added to HeLa cells along with the FDL substrate to allow intracellular drug activation then fluorescence levels were read on the fluorometer at 440 nm (CytoFluor II, PerSeptive Biosystems, Farmingdale, NY). The drug concentrations tested were based on the amount required for HbF induction in primary cells. Data was reported as the mean ± standard deviation (SD) for at least five replicates.
(§2) To ascertain the mechanism of HbF induction by the lead compounds, we performed an in vivo assay to investigate the ability of JMA26 and JMA33 to act as HDAC inhibitors. The HDAC Fluorescent Activity Assay designed to measure HDAC activity in HeLa cells was completed in a 96-well format. The assay is based on the fact that the Fluor de Lys substrate is deacetylated by HDACs to generate a fluorescent readout. TSA (0.5 to 1000 nM) was used to establish the assay in HeLa cells, showing about 80% HDAC inhibition in our system (Figure 4(a)).
(§3) Figure 4 HDAC inhibition assay. The HDAC Fluorescent Activity Assay was used to measure HDAC inhibition in HeLa cells (See Section 2). Compounds and FDL substrate were added to HeLa cells to allow drug activation in vivo then fluorescence levels were quantified on the fluorometer at 440 nm. (a) Trichostatin A (TSA) was used as the control. (b) Inhibition studies were conducted for FK228 showing maximal HDAC inhibition at the 300 nM concentration. (c) Similar studies were performed for JMA33 and JMA26. The data are reported as the means ± SEM.

Data set [1] concerns HDAC activity in HeLa cells. The data set is described as above. The settings on record: 300 nM; HeLa cells, Fluor de Lys substrate; maximal inhibition. The method, then: as §1, §2, §3
The subject of data set [2] is HbF-positive primary erythroid progenitors. The experiment in a line: Anti-HbF FITC immunostaining of primary erythroid progenitors. The settings on record: anti-HbF FITC / DAPI, 500 cells counted; 15.5% HbF-positive at baseline in untreated cells. On the procedure: The two-phase liquid culture system was established as previously published by Fibach et al. using buffy coat mononuclear cells, purchased from Carter Blood Care (Fort Worth, TX) in accordance with the guidelines of the Institutional Review Board at the University of Texas at Dallas. During phase 1, cells were grown in IMDM medium with 30% fetal bovine serum and 50 ng/mL each of the granulocyte-monocyte colony-stimulating factor, Interleukin-3, and stem cell factor. Subsequently, phase 2 was initiated on day 7 with the addition of erythropoietin (2 U/mL) and stem cell factor (50 ng/mL). The cells were treated on Day 11 with the different test compounds and harvested on Day 14 (72 hr incubation).
Primary erythroid progenitor cytospin cell preparations were fixed with 4% paraformaldehyde in phosphate buffered saline for 15 min, washed, and then permeabilized with 0.3% Trition-100 solution for 10 min. Cells were then blocked in a 5% bovine serum albumin solution and immunostaining performed at 4°C overnight with anti-HbF fluorescein isothiocyanate (FITC) conjugated antibody (Bethyl Laboratories Inc., TX). Cell nuclei were stained with mounting medium containing 4′,6-diamidino-2-phenylindole (DAPI; Santa Cruz Biotechnology, CA). Primary cells were photographed with an Olympus BX 51 phase contrast epifluorescent microscope equipped with Hoffman Modulation optics. Phase-contrast images were recorded with a CCD camera (1/100 sec exposure) and fluorescence images were photographed through 485/520 nm emission filter. The percent of HbF positive cells was calculated by dividing the number of FITC positive cells by total cells (DAPI positive).
Figure 3 JMA33 and JMA26 induce HbF in primary erythroid cells. (a) Day 11 erythroid progenitors were treated for 48 hr with the controls agents and the FK228 analogues shown and then analyzed by RT-qPCR. Untreated cells (UT) were used as a control and normalized to one. Data were calculated as the means ± SEM. […] The images generated were used to count 500 DAPI positive cells and the %FITC positive cells were calculated accordingly.

For FK228, the cell toxicity result with HeLa cells is recorded as “marked cell toxicity”. For the same substance, the HDAC inhibition result in data set [1] is “about 85%”. In data set [2], the “increase in HbF-positive cells” value is recorded as 3.5 fold.

The values above are taken from paper PMC3359661, “FK228 Analogues Induce Fetal Hemoglobin in Human Erythroid Progenitors” (Anemia, 2012).
